Data published in the supplement of paper PMC10307832.

Columns and labels:
Assay in all cases: relative viability (nuclei count vs DMSO), 5 days (fraction); higher = more cells survive
[1] = compound: CN1C=C(C2=CC=CC=C21)/C=C\3/C4=C(C=CC=N4)NC3=O + Nc1ncn([C@H]2C[C@H](O)[C@@H](CO)O2)c(=O)n1 [Decitabine] (partner 2 µM)
How it was run: (§1)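 Lung cancer cell lines were pin-tool dosed in 1536-well plates on the day after seeding, with either a lone drug or a fixed anchor-drug dose plus five library-drug doses (not always all listed) in √10 steps. Nuclei were counted on 4× images after 5 days. Relative viability is the ratio of treated-well to vehicle-well nuclei counts, with each value a median of duplicate plates.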

Trametinib + Luminespib = compound: CC(=O)Nc1cccc(-n2c(=O)n(C3CC3)c(=O)c3c(Nc4ccc(I)cc4F)n(C)c(=O)c(C)c32)c1 [Trametinib] + CCNC(=O)c1noc(-c2cc(C(C)C)c(O)cc2O)c1-c1ccc(CN2CCOCC2)cc1 [Luminespib] (partner 0.01 µM)
How it was run: as §1

[2] = compound: CN1C=C(C2=CC=CC=C21)/C=C\3/C4=C(C=CC=N4)NC3=O + CC(=O)Nc1cccc(-n2c(=O)n(C3CC3)c(=O)c3c(Nc4ccc(I)cc4F)n(C)c(=O)c(C)c32)c1 [Trametinib] (partner 0.02 µM)
How it was run: as §1

Trametinib + Decitabine = compound: CC(=O)Nc1cccc(-n2c(=O)n(C3CC3)c(=O)c3c(Nc4ccc(I)cc4F)n(C)c(=O)c(C)c32)c1 [Trametinib] + Nc1ncn([C@H]2C[C@H](O)[C@@H](CO)O2)c(=O)n1 [Decitabine] (partner 2 µM)
How it was run: as §1

Cell Line | relative viability ([1]; first compound 0.06325 µM) | relative viability ([1]; first compound 0.2 µM) | relative viability ([1]; first compound 0.6325 µM) | relative viability ([1]; first compound 2 µM) | relative viability (Trametinib + Luminespib; first compound 0.0025 µM) | relative viability (Trametinib + Luminespib; first compound 0.007906 µM) | relative viability (Trametinib + Luminespib; first compound 0.025 µM) | relative viability (Trametinib + Luminespib; first compound 0.07906 µM) | relative viability (Trametinib + Luminespib; first compound 0.25 µM) | relative viability ([2]; first compound 0.06325 µM) | relative viability ([2]; first compound 0.2 µM) | relative viability ([2]; first compound 0.6325 µM) | relative viability ([2]; first compound 2 µM) | relative viability (Trametinib + Decitabine; first compound 0.0025 µM) | relative viability (Trametinib + Decitabine; first compound 0.007906 µM) | relative viability (Trametinib + Decitabine; first compound 0.025 µM) | relative viability (Trametinib + Decitabine; first compound 0.07906 µM) | relative viability (Trametinib + Decitabine; first compound 0.25 µM) | relative viability ([1]; first compound 0.02 µM) | relative viability ([2]; first compound 0.02 µM)
LCLC-97TM1 | 0.189 | 0.205 | 0.208 | 0.241 | 0.802 | 0.493 | 0.291 | 0.226 | 0.234 | 0.19 | 0.189 | 0.198 | 0.19 | 0.275 | 0.287 | 0.206 | 0.203 | 0.169 | – | –
NCI-H727 | 0.886 | 0.669 | 0.979 | 0.829 | 0.297 | 0.314 | 0.291 | 0.244 | 0.225 | 0.344 | 0.361 | 0.373 | 0.401 | 0.818 | 0.619 | 0.541 | 0.431 | 0.453 | 0.935 | 0.461
NCI-H522 | 0.644 | 0.716 | 0.637 | 0.695 | 1.04 | 0.917 | 1 | 0.844 | 0.574 | 0.712 | 0.793 | 0.752 | 0.852 | 0.783 | 0.602 | 0.678 | 0.64 | 0.672 | 0.598 | 0.746
LK-2 | 0.24 | 0.192 | 0.275 | 0.375 | 0.159 | 0.183 | 0.223 | 0.161 | 0.191 | 0.683 | 0.743 | 0.701 | 0.794 | 0.309 | 0.259 | 0.181 | 0.18 | 0.147 | 0.225 | –
PC-3 [JPC-3] | 0.777 | 0.863 | 0.786 | 0.812 | 0.656 | 0.574 | 0.385 | 0.405 | 0.396 | 0.657 | 0.667 | 0.718 | 0.717 | 0.807 | 0.724 | 0.757 | – | 0.632 | 0.863 | 0.824
NCI-H596 | 1.06 | 0.958 | 1.88 | 1.81 | 0.901 | 0.775 | 0.65 | 0.727 | 0.523 | 0.781 | 0.755 | 0.744 | 0.867 | 0.967 | 0.96 | 0.952 | 0.968 | 0.739 | 1.03 | 0.741
NCI-H460 | 0.44 | 0.414 | 0.445 | 0.483 | 0.0314 | 0.0296 | 0.0277 | 0.0263 | 0.0269 | 0.158 | 0.0911 | 0.0905 | 0.12 | 0.481 | 0.389 | 0.361 | 0.305 | 0.112 | 0.487 | 0.304
NCI-H647 | 0.314 | 0.384 | 0.327 | 0.349 | 0.183 | 0.12 | 0.324 | 0.209 | 0.102 | 0.404 | 0.41 | 0.38 | 0.404 | 0.39 | 0.349 | 0.377 | 0.344 | 0.19 | 0.391 | 0.532
